Data: ChEMBL document CHEMBL1201862, “PubChem BioAssay data set” (2004)
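Cultured in 96-well plates, cells were exposed to test compound for 48 hours across five concentrations. The concentration for 50% growth inhibition is given as GI50.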 Activity calls are given as the source filed them. No stated cut-off is given here; in the data, active = GI50 up to about 1.1 µM and inactive = higher.

Columns and labels:
Experiment in all cases: NCI anticancer screen, dose series, 48 h
XF498 = test system: XF498
SNB-78 = test system: SNB-78
KM-20L2 = test system: KM-20L2
HOP-18 = test system: HOP-18
M19-MEL = test system: M19-MEL
DMS-114 = test system: DMS-114
LXFL 529 = test system: LXFL 529
DLD-1 = test system: DLD-1
RXF 631 = test system: RXF 631

SMILES	GI50 (XF498)	GI50 (SNB-78)	GI50 (KM-20L2)	GI50 (HOP-18)	GI50 (M19-MEL)	GI50 (DMS-114)	GI50 (LXFL 529)	GI50 (DLD-1)	GI50 (RXF 631)
COc1ccc([C@H]2[C@@H]3CCc4ccccc4C3=NN2C(N)=S)cc1OC	> 100 µM (inactive)	> 100 µM (inactive)	57.7 µM (inactive)	> 100 µM (inactive)	34.3 µM (inactive)	28.8 µM (inactive)	24.2 µM (inactive)	53 µM (inactive)	–
CC/C(CC(=O)CCC(=O)Nc1c(C)cccc1C)=N\NC(=O)NN	–	> 100 µM (inactive)	> 100 µM (inactive)	> 100 µM (inactive)	> 100 µM (inactive)	–	> 100 µM (inactive)	> 100 µM (inactive)	> 100 µM (inactive)
COc1ccc2c(c1)c(=O)c1c(NCCCN(C)C)ccc3ncn2c31	5.35 µM (inactive)	7.48 µM (inactive)	1.12 µM (inactive)	11.2 µM (inactive)	9.08 µM (inactive)	10.6 µM (inactive)	3.41 µM (inactive)	1.14 µM (inactive)	–
COc1ccc(-c2cc3ccccc3[nH]c2=O)cc1OC	> 100 µM (inactive)	> 100 µM (inactive)	> 100 µM (inactive)	> 100 µM (inactive)	> 100 µM (inactive)	–	> 100 µM (inactive)	> 100 µM (inactive)	–
N#CC(N)(C(=O)C(=O)NCCCNC(=O)C(=O)C(N)(C#N)c1ccc(Cl)cc1)c1ccc(Cl)cc1 (stereo not drawn)	> 100 µM (inactive)	> 100 µM (inactive)	> 100 µM (inactive)	> 100 µM (inactive)	> 100 µM (inactive)	> 100 µM (inactive)	> 100 µM (inactive)	> 100 µM (inactive)	> 100 µM (inactive)
CS/C(c1ccccc1)=[N+](\[O-])Cc1ccccc1	> 100 µM (inactive)	> 100 µM (inactive)	> 100 µM (inactive)	> 100 µM (inactive)	> 100 µM (inactive)	45.9 µM (inactive)	> 100 µM (inactive)	> 100 µM (inactive)	–
CNC(=O)OC1/C(C)=C\C(C)C(O)C(OC)CC(C)CC2=C(OC)C(=O)C=C(C2=O)N(C)C(=O)/C(C)=C/C=C\C1OC (stereo not drawn)	3.72 µM (inactive)	7.21 µM (inactive)	2.53 µM (inactive)	9.27 µM (inactive)	5 µM (inactive)	4.99 µM (inactive)	4.86 µM (inactive)	1.96 µM (inactive)	15.1 µM (inactive)
CN(C)C(=O)Nc1c([N+](=O)[O-])cc(C(F)(F)F)cc1[N+](=O)[O-]	16.8 µM (inactive)	33.5 µM (inactive)	26.5 µM (inactive)	–	–	–	40.9 µM (inactive)	–	–
Cc1ccc(C)c(N2C(=O)C(=O)C(c3nc4ccccc4o3)C(=O)C2=O)c1	–	> 100 µM (inactive)	> 100 µM (inactive)	> 100 µM (inactive)	59.2 µM (inactive)	44 µM (inactive)	48.9 µM (inactive)	22.9 µM (inactive)	> 100 µM (inactive)
COC(=O)CCC1CCc2c(OC)ccc(O)c2C1=O (stereo not drawn)	–	> 100 µM (inactive)	–	–	> 100 µM (inactive)	–	> 100 µM (inactive)	> 100 µM (inactive)	> 100 µM (inactive)
Nc1nc2ncn(CC(O)COC(=O)c3ccccc3)c2c(=O)[nH]1 (stereo not drawn)	> 100 µM (inactive)	48.3 µM (inactive)	> 100 µM (inactive)	> 100 µM (inactive)	> 100 µM (inactive)	> 100 µM (inactive)	> 100 µM (inactive)	> 100 µM (inactive)	> 100 µM (inactive)
CCC1(Cl)C(=O)NC(=O)N(C2CC(O)C(CO)O2)C1N=[N+]=[N-] (stereo not drawn)	> 100 µM (inactive)	> 100 µM (inactive)	> 100 µM (inactive)	–	> 100 µM (inactive)	80.4 µM (inactive)	> 100 µM (inactive)	> 100 µM (inactive)	> 100 µM (inactive)
Cc1cccc(C2SCc3nc4ccccc4n32)c1 (stereo not drawn)	–	27.5 µM (inactive)	–	< 0.01 µM (active)	24 µM (inactive)	10.9 µM (inactive)	25.2 µM (inactive)	25.2 µM (inactive)	–
Cc1cc(N(CCOS(C)(=O)=O)CCOS(C)(=O)=O)ccc1/C=N/c1ccc(-c2nc(Cc3ccccc3)sc2C)cc1	2.26 µM (inactive)	32.9 µM (inactive)	7.19 µM (inactive)	6.64 µM (inactive)	10 µM (inactive)	7.91 µM (inactive)	16.6 µM (inactive)	12.8 µM (inactive)	–
COc1cc2c(cc1OC)[C@@H](Nc1ccc(F)cc1)C1COC(=O)[C@@H]1C2c1cc(OC)c(O)c(OC)c1 (stereo partly drawn)	3 µM (inactive)	> 20.4 µM (inactive)	3.04 µM (inactive)	5.35 µM (inactive)	5.08 µM (inactive)	1.15 µM (inactive)	19.6 µM (inactive)	3.13 µM (inactive)	1.73 µM (inactive)
Cc1cn(C2CC3C(COCN3O)O2)c(=O)[nH]c1=O (stereo not drawn)	> 100 µM (inactive)	–	> 100 µM (inactive)	–	> 100 µM (inactive)	> 100 µM (inactive)	> 100 µM (inactive)	–	–
COc1cccc2c1C(=O)OC2c1cccc2ccccc12 (stereo not drawn)	34.8 µM (inactive)	> 100 µM (inactive)	> 100 µM (inactive)	> 85.5 µM (inactive)	> 100 µM (inactive)	> 100 µM (inactive)	> 100 µM (inactive)	> 100 µM (inactive)	–
CC1=C2C(=O)C3[C@@H](CCC4=CC(=O)CC[C@@]43C)C2CC[C@]12O[C@@H]1C[C@H](C)CN[C@H]1[C@H]2C (stereo partly drawn)	12.6 µM (inactive)	–	68.4 µM (inactive)	49.3 µM (inactive)	36.2 µM (inactive)	15.3 µM (inactive)	34.5 µM (inactive)	> 100 µM (inactive)	–
N#CC(C(=O)/C(=N/Nc1nc(S)nn1N)C(C#N)c1ccccc1)c1ccccc1 (stereo not drawn)	> 100 µM (inactive)	> 100 µM (inactive)	> 100 µM (inactive)	0.403 µM (active)	> 100 µM (inactive)	> 100 µM (inactive)	> 100 µM (inactive)	> 100 µM (inactive)	> 100 µM (inactive)
CCOC(=O)CN(Cc1ccccc1)Cc1c(C(=O)c2ccccc2)c2ccccc2n1C(=O)c1ccccc1	73.1 µM (inactive)	> 100 µM (inactive)	> 100 µM (inactive)	–	> 100 µM (inactive)	> 100 µM (inactive)	8.57 µM (inactive)	> 100 µM (inactive)	–
O=C(NC1=C(Cl)C(=O)c2ccccc2C1=O)C(=O)C(C(=O)c1ccc2ccccc2c1)C1OC(=O)c2ccccc21 (stereo not drawn)	–	3.76 µM (inactive)	4.52 µM (inactive)	–	0.309 µM (active)	2.36 µM (inactive)	4.43 µM (inactive)	4.31 µM (inactive)	–
O=NN(CCCl)C(=O)NCc1ccc[n+]([O-])c1	> 100 µM (inactive)	> 100 µM (inactive)	> 100 µM (inactive)	–	> 100 µM (inactive)	> 100 µM (inactive)	> 100 µM (inactive)	> 100 µM (inactive)	> 100 µM (inactive)
